Source: patent US12441736B2, “KIF18A inhibitors” (AMGEN INC., priority 2018, dated 2025)

Molecular target: T1, Recombinant human KIF18A (1-467 His-tagged) protein (Homo sapiens, UniProt Q8NI77)
T1 construct: Recombinant human KIF18A (1-467 His-tagged) protein; His; made in house
Test: KIF18A Enzyme Assay: microtubule-stimulated ATPase activity (ADP-Glo)
Format: biochemical
Conditions: 30 nM KIF18A, 30 μg/mL pig microtubules, 75 μM ATP, ADP-Glo luminescence
From the text: KIF18A Enzyme Assay: Microtubule-stimulated ATPase activity assay is used to measure KIF18A enzyme activity after treatment with compound. Compounds were 2-fold serially diluted in DMSO (Sigma Inc) over 22-point concentration range. Recombinant human KIF18A (1-467 His-tagged) protein was expressed using a baculovirus system and purified by affinity chromatography by Amgen Inc. Concentrations of KIF18A protein, microtubules (MT), and ATP in the reaction were optimized for standardized homogenous enzyme assay using ADP-Glo™ Kinase/ATPase Assay Kit (Promega Inc). The assay measures ADP formed from the ATPase reaction. Prepare reaction buffer [(15 mM Tris, pH 7.5 (Teknova Inc), 10 mM MgCl2 (IT Baker Inc), 0.01% Pluronic F-68 (Life Technologies Inc), 1 μM Taxol (Cytoskeleton Inc), and 30 μg/mL pig microtubules (Cytoskeleton Inc)]. Add compound and KIF18A protein (30 nM) to prepared reaction buffer and incubated for 15 minutes at room temperature, next add ATP (at Kin, 75 μM) to the reaction mixture and incubated for an additional 15 minutes at room temperature. Mix 5 μl of ADP-Glo™ Reagent and 2.5 μl of the reaction mixture and incubate for 40 minutes at room temperature. Add 10 μl ADP-Glo™ Detection Reagent and incubate for 40 minutes at room temperature. Read luminescence using EnVision microplate reader with ultra-luminescence module (Perkin Elmer Inc). Concentration-response curve-fitting and IC50 determination was performed using Genedata Screener Software (Standard 15.0.1, Genedata Inc) with a four-parameter logistic regression fit model.
Table A provides data for compounds exemplified in the present application and priority document thereof, as representative compounds of the present invention, as follows: chemical name (as named by either ACD software or ChemDraw (Professional 15.0)) and biological data (IC50 in μM). Ex. # refers to Example No.

T1 sequence (Q8NI77 1-467): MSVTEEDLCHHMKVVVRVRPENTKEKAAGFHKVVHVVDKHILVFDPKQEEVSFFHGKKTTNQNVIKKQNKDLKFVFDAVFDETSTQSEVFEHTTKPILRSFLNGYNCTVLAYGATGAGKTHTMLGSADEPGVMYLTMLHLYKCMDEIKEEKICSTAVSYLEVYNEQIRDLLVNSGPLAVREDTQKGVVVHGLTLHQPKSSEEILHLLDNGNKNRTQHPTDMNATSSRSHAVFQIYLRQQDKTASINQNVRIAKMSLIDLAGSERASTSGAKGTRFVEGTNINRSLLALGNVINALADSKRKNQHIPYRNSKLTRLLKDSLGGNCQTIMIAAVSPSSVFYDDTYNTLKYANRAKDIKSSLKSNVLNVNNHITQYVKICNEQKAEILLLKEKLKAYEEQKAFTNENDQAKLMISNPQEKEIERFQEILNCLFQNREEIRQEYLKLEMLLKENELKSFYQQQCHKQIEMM
T1 sequence (P02550 whole entry partner): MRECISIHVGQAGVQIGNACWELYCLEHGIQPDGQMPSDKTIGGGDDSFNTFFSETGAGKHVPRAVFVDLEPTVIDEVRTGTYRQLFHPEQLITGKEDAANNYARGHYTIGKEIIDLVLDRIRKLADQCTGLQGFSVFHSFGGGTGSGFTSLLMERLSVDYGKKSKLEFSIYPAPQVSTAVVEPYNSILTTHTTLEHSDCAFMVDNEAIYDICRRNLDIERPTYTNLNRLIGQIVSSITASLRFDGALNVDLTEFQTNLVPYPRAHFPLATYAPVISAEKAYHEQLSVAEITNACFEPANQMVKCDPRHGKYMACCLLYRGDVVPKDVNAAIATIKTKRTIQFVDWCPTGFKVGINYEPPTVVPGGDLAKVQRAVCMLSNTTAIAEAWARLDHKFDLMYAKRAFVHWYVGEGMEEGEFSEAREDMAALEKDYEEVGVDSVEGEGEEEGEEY
T1 sequence (P02554 whole entry partner): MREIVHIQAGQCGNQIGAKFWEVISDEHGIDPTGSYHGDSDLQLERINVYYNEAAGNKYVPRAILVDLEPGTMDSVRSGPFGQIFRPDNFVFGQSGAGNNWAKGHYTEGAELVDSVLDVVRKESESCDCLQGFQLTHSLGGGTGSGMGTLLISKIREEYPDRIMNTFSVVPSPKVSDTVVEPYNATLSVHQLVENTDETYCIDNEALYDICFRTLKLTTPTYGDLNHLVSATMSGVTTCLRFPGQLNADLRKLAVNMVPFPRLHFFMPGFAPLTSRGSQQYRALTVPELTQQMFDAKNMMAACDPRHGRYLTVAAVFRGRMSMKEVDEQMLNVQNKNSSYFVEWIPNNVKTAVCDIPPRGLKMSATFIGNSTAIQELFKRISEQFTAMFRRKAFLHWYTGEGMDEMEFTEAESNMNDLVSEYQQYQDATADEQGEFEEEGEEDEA

SMILES | IC50
C[C@@H]1CN(c2cccc(NC(=O)c3ccc(CS(C)(=O)=O)nc3N3CCC4(CC3)CC4)n2)CCO1 [Example 239, 2-(6-azaspiro[2.5]octan-6-yl)-N-(6-((2R)-2-methyl-4-morpholinyl)-2-pyridinyl)-6-((methylsulfonyl)methyl)-3-pyridinecarboxamide] | 68.1 nM
O=C(Nc1cccc(N2CCOCC2)n1)c1ccc([C@@](O)(CO)C(F)(F)F)nc1N1CCC2(CC1)CC2 (single isomer, unassigned) [Example 201] | 76.9 nM
CC(C)N1CCN(c2cccc(NC(=O)c3ccc(NC(C)(C)CO)nc3N3CCC4(CC3)CC4)n2)CC1 [Example 188, 2-(6-azaspiro[2.5]octan-6-yl)-6-((1-hydroxy-2-methyl-2-propanyl)amino)-N-(6-(4-(2-propanyl)-1-piperazinyl)-2-pyridinyl)-3-pyridinecarboxamide] | 2260 nM
CNS(=O)(=O)c1ccc(C(=O)Nc2cccc(N3CCO[C@H](C)C3)n2)c(N2CCC3(CC2)CC3)n1 [Example 223, (R)-N-(6-(2-methylmorpholino)pyridin-2-yl)-6-(N-methylsulfamoyl)-2-(6-azaspiro[2.5]octan-6-yl)nicotinamide] | 79.4 nM
CC(C)(CO)Nc1ccc(C(=O)Nc2cccc(N3CCCC(N)C3)n2)c(N2CCC3(CC2)CC3)n1 (stereo not shown) [Example 236, N-(6-(3-aminopiperidin-1-yl)pyridin-2-yl)-6-((1-hydroxy-2-methylpropan-2-yl)amino)-2-(6-azaspiro[2.5]octan-6-yl)nicotinamide] | 388 nM
CC(C)(CO)Nc1cnc(C(=O)Nc2cc(C#N)cc(N3CCOCC3)n2)c(N2CCC3(CC2)CC3)n1 [Example 117, 3-(6-azaspiro[2.5]octan-6-yl)-N-(4-cyano-6-(4-morpholinyl)-2-pyridinyl)-5-((1-hydroxy-2-methyl-2-propanyl)amino)-2-pyrazinecarboxamide] | 138 nM
CC(C)(CO)Nc1ccc(C(=O)Nc2cc(Cl)cc(N3CCOCC3)n2)c(N2CCC3(CC2)CC3)n1 [Example 152, 2-(6-azaspiro[2.5]oct-6-yl)-N-(4-chloro-6-(4-morpholinyl)-2-pyridinyl)-6-((1-hydroxy-2-methyl-2-propanyl)amino)-3-pyridinecarboxamide] | 74.3 nM
CC(C)(CO)Nc1ccc(C(=O)Nc2cccc(N3CCCC(NC(=O)OC(C)(C)C)C3)n2)c(N2CCC3(CC2)CC3)n1 (stereo not shown) [Example 234, tert-butyl (1-(6-(6-((1-hydroxy-2-methylpropan-2-yl)amino)-2-(6-azaspiro[2.5]octan-6-yl)nicotinamido)pyridin-2-yl)piperidin-3-yl)carbamate] | 1520 nM
C[C@@H]1CN(c2cccc(NC(=O)c3ccc(S(C)(=O)=O)nc3N3CCC4(CC3)CC4)n2)CCO1 [Example 238, (R)-N-(6-(2-methylmorpholino)pyridin-2-yl)-6-(methylsulfonyl)-2-(6-azaspiro[2.5]octan-6-yl)nicotinamide] | 284 nM
CC(C)(CO)Nc1ccc(C(=O)Nc2cccc(N3CCN(C4CCC4)CC3)n2)c(N2CCC3(CC2)CC3)n1 [Example 191, 2-(6-azaspiro[2.5]octan-6-yl)-N-(6-(4-cyclobutyl-1-piperazinyl)-2-pyridinyl)-6-((1-hydroxy-2-methyl-2-propanyl)amino)-3-pyridinecarboxamide] | 1240 nM
C[C@@H]1CN(c2cccc(NC(=O)c3ccc(NC(C)(C)CO)nc3N3CCC4(CC3)CC4)n2)CCO1 [Example 137, 2-(6-azaspiro[2.5]oct-6-yl)-6-((2-hydroxy-1,1-dimethylethyl)amino)-N-(6-((2R)-2-methyl-4-morpholinyl)-2-pyridinyl)-3-pyridinecarboxamide] | 66.9 nM
CC(C)(C)NS(=O)(=O)c1cccc(NC(=O)c2ccc(F)nc2N2CCC3(CC2)CC3)n1 [Example 173, 2-(6-azaspiro[2.5]octan-6-yl)-6-fluoro-N-(6-((2-methyl-2-propanyl)sulfamoyl)-2-pyridinyl)-3-pyridinecarboxamide] | 643 nM
CC(C)(CO)Nc1ccc(C(=O)Nc2cccc(N3CC4(COC4)C3)n2)c(N2CCC3(CC2)CC3)n1 [Example 163, 2-(6-azaspiro[2.5]octan-6-yl)-6-((1-hydroxy-2-methyl-2-propanyl)amino)-N-(6-(2-oxa-6-azaspiro[3.3]heptan-6-yl)-2-pyridinyl)-3-pyridinecarboxamide] | 159 nM
C[C@@H]1CN(c2cccc(NC(=O)c3ccc(NC(CO)(CO)CO)nc3N3CCC4(CC3)CC4)n2)CCO1 [Example 222, 2-(6-azaspiro[2.5]octan-6-yl)-6-((1,3-dihydroxy-2-(hydroxymethyl)-2-propanyl)amino)-N-(6-((2R)-2-methyl-4-morpholinyl)-2-pyridinyl)-3-pyridinecarboxamide] | 88 nM
CC(C)(CO)Nc1ccc(C(=O)Nc2cccc(N3CCC[C@@H](O)C3)n2)c(N2CCC3(CC2)CC3)n1 [Example 216, 2-(6-azaspiro[2.5]octan-6-yl)-6-((1-hydroxy-2-methyl-2-propanyl)amino)-N-(6-((3R)-3-hydroxy-1-piperidinyl)-2-pyridinyl)-3-pyridinecarboxamide] | 80.4 nM
CC(C)(CO)Nc1ccc(C(=O)Nc2cc(C#N)cc(N3CCOCC3)n2)c(N2CCC3(CC2)CC3)n1 [Example 156, 2-(6-azaspiro[2.5]octan-6-yl)-N-(4-cyano-6-(4-morpholinyl)-2-pyridinyl)-6-((1-hydroxy-2-methyl-2-propanyl)amino)-3-pyridinecarboxamide] | 116 nM
CC(O)(c1ccc(C(=O)Nc2cccc(N3CCOCC3)n2)c(N2CCC3(CC2)CC3)n1)C(F)(F)F (single isomer, unassigned) [Example 141] | 88 nM
C[C@@H]1CN(c2cccc(NC(=O)c3ccc(C(F)(CO)CO)nc3N3CCC4(CC3)CC4)n2)CCO1 [Example 196, 2-(6-azaspiro[2.5]octan-6-yl)-6-(2-fluoro-1,3-dihydroxy-2-propanyl)-N-(6-((2R)-2-methyl-4-morpholinyl)-2-pyridinyl)-3-pyridinecarboxamide] | 158 nM
CS(=O)(=O)Cc1ccc(C(=O)Nc2cccc(N3CCC[C@@H](O)C3)n2)c(N2CCC3(CC2)CC3)n1 [Example 241, 2-(6-azaspiro[2.5]octan-6-yl)-N-(6-((3R)-3-hydroxy-1-piperidinyl)-2-pyridinyl)-6-((methylsulfonyl)methyl)-3-pyridinecarboxamide] | 101 nM
CC(C)(CO)Nc1ccc(C(=O)Nc2cccc(N3CCO[C@H](CO)C3)n2)c(N2CCC3(CC2)CC3)n1 [Example 189, 2-(6-azaspiro[2.5]octan-6-yl)-N-(6-((2S)-2-(hydroxymethyl)-4-morpholinyl)-2-pyridinyl)-6-((1-hydroxy-2-methyl-2-propanyl)amino)-3-pyridinecarboxamide] | 110 nM
CC(C)(CO)Nc1ccc(C(=O)Nc2cccc(N3CCC[C@H](O)C3)n2)c(N2CCC3(CC2)CC3)n1 [Example 228, 2-(6-azaspiro[2.5]octan-6-yl)-6-((1-hydroxy-2-methyl-2-propanyl)amino)-N-(6-((3S)-3-hydroxy-1-piperidinyl)-2-pyridinyl)-3-pyridinecarboxamide] | 69.7 nM
CC(C)(C)NS(=O)(=O)c1cccc(NC(=O)c2ccc(C3(C(F)(F)F)COC(C)(C)O3)nc2N2CCC3(CC2)CC3)n1 (racemic) [Example 171, N-(6-(N-(tert-butyl)sulfamoyl)pyridin-2-yl)-6-(2,2-dimethyl-4-(trifluoromethyl)-1,3-dioxolan-4-yl)-2-(6-azaspiro[2.5]octan-6-yl)nicotinamide] | 286 nM
